{"source": "ChEMBL document CHEMBL4732114", "about": "“Design and structural optimization of novel 2H-benzo[h]chromene derivatives that target AcrB and reverse bacterial multidrug resistance” (Eur J Med Chem, 2021)", "key": {"[1]": {"target": "T1, Multidrug efflux pump subunit AcrB (Escherichia coli (strain K12)) (UniProt P31224)", "T1 sequence (whole entry)": "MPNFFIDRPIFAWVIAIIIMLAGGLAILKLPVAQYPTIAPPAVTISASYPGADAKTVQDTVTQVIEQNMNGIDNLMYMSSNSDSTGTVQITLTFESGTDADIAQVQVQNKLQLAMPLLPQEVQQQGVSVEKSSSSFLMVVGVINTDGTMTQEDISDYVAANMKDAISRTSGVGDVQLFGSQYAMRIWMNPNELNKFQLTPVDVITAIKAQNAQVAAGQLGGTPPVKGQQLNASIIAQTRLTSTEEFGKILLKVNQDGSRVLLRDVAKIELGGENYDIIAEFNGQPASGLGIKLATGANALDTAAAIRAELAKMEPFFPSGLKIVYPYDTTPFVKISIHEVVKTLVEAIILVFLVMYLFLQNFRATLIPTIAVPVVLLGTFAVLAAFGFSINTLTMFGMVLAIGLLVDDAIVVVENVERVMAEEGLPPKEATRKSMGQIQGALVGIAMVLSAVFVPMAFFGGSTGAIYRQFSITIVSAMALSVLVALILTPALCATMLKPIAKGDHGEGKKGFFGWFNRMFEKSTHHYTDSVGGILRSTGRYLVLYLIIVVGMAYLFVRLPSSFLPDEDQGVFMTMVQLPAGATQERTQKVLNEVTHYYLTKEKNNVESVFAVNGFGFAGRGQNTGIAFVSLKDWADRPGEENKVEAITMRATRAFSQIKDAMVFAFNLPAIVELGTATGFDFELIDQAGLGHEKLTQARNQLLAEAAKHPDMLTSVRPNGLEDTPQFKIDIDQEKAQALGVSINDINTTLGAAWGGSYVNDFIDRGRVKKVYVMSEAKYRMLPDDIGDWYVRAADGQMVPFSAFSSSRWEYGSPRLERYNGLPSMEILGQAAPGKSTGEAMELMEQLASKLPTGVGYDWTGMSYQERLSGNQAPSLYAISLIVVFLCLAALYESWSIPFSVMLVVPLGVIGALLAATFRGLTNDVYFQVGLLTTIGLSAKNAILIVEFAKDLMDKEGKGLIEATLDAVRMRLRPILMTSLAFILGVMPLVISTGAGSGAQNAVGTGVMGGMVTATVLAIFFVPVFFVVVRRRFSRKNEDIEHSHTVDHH", "experiment": "Inhibition of AcrB in multidrug-resistant Escherichia coli BW25113 assessed as potentiation of erythromycin-induced antibacterial activity by measuring erythromycin MIC at 256 ug/ml by checkerboard titration method (reference value: 64 ug/ml)", "conditions": "dose 256.0 µg/ml"}, "[2]": {"target": "T1, Multidrug efflux pump subunit AcrB (Escherichia coli (strain K12))", "experiment": "Inhibition of AcrB in multidrug-resistant Escherichia coli BW25113 assessed as potentiation of levofloxacin-induced antibacterial activity by measuring levofloxacin MIC at 256 ug/ml by checkerboard titration method (reference value: 0.06 ug/ml)", "conditions": "dose 256.0 µg/ml"}, "[3]": {"target": "T1, Multidrug efflux pump subunit AcrB (Escherichia coli (strain K12))", "experiment": "Inhibition of AcrB in multidrug-resistant Escherichia coli BW25113 assessed as potentiation of tetraphenylphosphonium-induced antibacterial activity by measuring tetraphenylphosphonium MIC at 512 ug/ml by checkerboard titration method (reference value: 1024 ug/ml)", "conditions": "dose 512.0 µg/ml"}, "[4]": {"target": "T1, Multidrug efflux pump subunit AcrB (Escherichia coli (strain K12))", "conditions": "Escherichia coli BW25113; dose 256.0 µg/ml"}, "[5]": {"target": "T1, Multidrug efflux pump subunit AcrB (Escherichia coli (strain K12))", "experiment": "Inhibition of AcrB in multidrug-resistant Escherichia coli BW25113 assessed as potentiation of levofloxacin-induced antibacterial activity by measuring levofloxacin MIC at 512 ug/ml by checkerboard titration method (reference value: 0.06 ug/ml)", "conditions": "dose 512.0 µg/ml"}, "[6]": {"target": "T1, Multidrug efflux pump subunit AcrB (Escherichia coli (strain K12))", "experiment": "Inhibition of AcrB in multidrug-resistant Escherichia coli BW25113 assessed as potentiation of chloramphenicol-induced antibacterial activity by measuring chloramphenicol MIC at 256 ug/ml by checkerboard titration method (reference value: 8 ug/ml)", "conditions": "dose 256.0 µg/ml"}, "[7]": {"target": "T1, Multidrug efflux pump subunit AcrB (Escherichia coli (strain K12))", "experiment": "Inhibition of AcrB in multidrug-resistant Escherichia coli BW25113 assessed as potentiation of erythromycin-induced antibacterial activity by measuring erythromycin MIC at 512 ug/ml by checkerboard titration method (reference value: 64 ug/ml)", "conditions": "dose 512.0 µg/ml"}, "[8]": {"target": "T1, Multidrug efflux pump subunit AcrB (Escherichia coli (strain K12))", "experiment": "Inhibition of AcrB in multidrug-resistant Escherichia coli BW25113 assessed as potentiation of tetraphenylphosphonium-induced antibacterial activity by measuring tetraphenylphosphonium MIC at 256 ug/ml by checkerboard titration method (reference value: 1024 ug/ml)", "conditions": "dose 256.0 µg/ml"}, "[9]": {"target": "T1, Multidrug efflux pump subunit AcrB (Escherichia coli (strain K12))", "experiment": "Inhibition of AcrB in multidrug-resistant Escherichia coli BW25113 assessed as potentiation of chloramphenicol-induced antibacterial activity by measuring chloramphenicol MIC at 512 ug/ml by checkerboard titration method (reference value: 8 ug/ml)", "conditions": "dose 512.0 µg/ml"}, "[10]": {"target": "T1, Multidrug efflux pump subunit AcrB (Escherichia coli (strain K12))", "conditions": "Escherichia coli BW25113; dose 512.0 µg/ml"}}, "data": [{"smiles": "CC(C)CCOc1cc(C(N)=O)cc2ccccc12", "values": [{"measurement": "MIC", "setting": "[1]", "value": 64, "unit": "µg/mL"}, {"measurement": "MIC", "setting": "[2]", "value": 0.06, "unit": "µg/mL"}, {"measurement": "MIC", "setting": "[3]", "value": 256, "unit": "µg/mL"}, {"measurement": "MIC", "setting": "[4]", "value": 16, "unit": "µg/mL"}, {"measurement": "MIC", "setting": "[5]", "value": 0.06, "unit": "µg/mL"}, {"measurement": "MIC", "setting": "[6]", "value": 8, "unit": "µg/mL"}, {"measurement": "MIC", "setting": "[7]", "value": 32, "unit": "µg/mL"}, {"measurement": "MIC", "setting": "[8]", "value": 512, "unit": "µg/mL"}, {"measurement": "MIC", "setting": "[9]", "value": 4, "unit": "µg/mL"}, {"measurement": "MIC", "setting": "[10]", "value": 16, "unit": "µg/mL"}]}]}
